From patent publication US20210113529A1, “MEDICINE FOR PREVENTING OR TREATING OPHTHALMIC DISEASE ASSOCIATED WITH ENHANCED INTRAOCULAR NEOVASCULARIZATION AND/OR INTRAOCULAR VASCULAR PERMEABILITY” (KYOTO UNIVERSITY, priority 2018, published 2021)

How the values were obtained:
S1P3 receptor = S1P3 receptor (Homo sapiens, UniProt Q99500); test: GTP[γ35S] binding assay, S1P3 receptor agonist activity; assay type: biochemical
[1] = system: human retinal vascular endothelial cells (HRMECs); test: Permeability of human retinal vascular endothelial cells (Transwell, FITC-dextran); assay type: cell-based; conditions: HRMECs in Transwell; 0.3 nM, 3 nM or 30 nM; 60 minutes pre-culture, 60 minutes after FITC-dextran (40 kDa)
Description: The upper chamber of Transwell (diameter: 6.5 mm, pore size: 0.4 μm: Corning Incorporated) coated with collagen and fibronectin was seeded with human retinal vascular endothelial cells (HRMECs) (Cell Systems) at a cell density of 5×10^4 cells/well, and the cells were cultured in Endothelial Cell Growth Medium MV 2 (PromoCell GmbH) under a 5% CO2 atmosphere at 37° C. for 6 days. Then, to the upper chamber and lower chamber of the Transwell, Compound 1 at a final concentration of 0 nM, 0.3 nM, 3 nM, or 30 nM, which had been prepared using 0.001% dimethyl sulfoxide-containing Endothelial Cell Growth Medium MV 2 as a vehicle, was added, and culture was continued. A well to which only the vehicle was added was used as a control. After 60 minutes of culture, 1 mg/mL of fluorescein isothiocyanate (FITC)-dextran (40 kDa: Sigma-Aldrich) was added to the upper chamber of the Transwell, and 60 minutes later, the fluorescence intensity of the medium in the lower chamber was measured to measure the amount of FITC-dextran permeating the lower chamber.

S1P1 receptor = S1P1 receptor (Homo sapiens, UniProt P21453); test: GTP[γ35S] binding assay, S1P1 receptor agonist activity
Sequence of S1P1 receptor (P21453 whole entry): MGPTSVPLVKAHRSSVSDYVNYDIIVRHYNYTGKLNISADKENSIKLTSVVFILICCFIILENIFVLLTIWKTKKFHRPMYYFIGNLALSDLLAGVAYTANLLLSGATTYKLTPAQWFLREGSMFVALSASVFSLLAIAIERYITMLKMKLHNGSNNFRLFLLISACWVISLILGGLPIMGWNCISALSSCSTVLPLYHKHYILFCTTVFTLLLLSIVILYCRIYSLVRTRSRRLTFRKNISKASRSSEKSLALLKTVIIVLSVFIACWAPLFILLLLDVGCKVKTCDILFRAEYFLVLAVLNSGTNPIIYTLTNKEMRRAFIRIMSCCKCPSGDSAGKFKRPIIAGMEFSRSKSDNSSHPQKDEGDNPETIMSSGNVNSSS

[2] = system: laser-induced choroidal neovascularization (CNV) model; test: Laser-induced CNV model: fluorescein angiography (FA) grade; assay type: in vivo, mice; conditions: 0.3 mg/kg orally once daily; Day 14 (Comparative Example 1)
Description: A Mydrin-P ophthalmic solution (Santen Pharmaceutical Co., Ltd., Mydrin is a trademark) was dropped into the right eye of 8-week-old mice (Japan SLC, Inc., C56BL/6J strain) to cause mydriasis. A solution obtained by diluting a 7:1 mixed anesthetic solution of ketamine and xylazine 10-fold with physiological saline was administered at 10 mL/kg into the femoral muscle. After that, a 0.1% Hyalein (trademark) ophthalmic solution (Santen Pharmaceutical Co., Ltd.) was dropped into the eye so as to prevent the eyeball from drying. […]
Sampling was performed on the 14th day after the laser irradiation. The mice were anesthetized with 10 mL/kg of a solution obtained by diluting a 7:1 mixed anesthetic solution of ketamine and xylazine 10-fold with physiological saline, and then 0.1 mL of a 10-fold dilution of fluorescein (Alcon Japan Ltd.) was administered into the tail vein of the mice, followed by fluorescence fundus photography using Micron 4 (Phoenix Research Laboratories, Inc. Pleasanton, Calif., USA).
In FIG. 1 (a), Day 0 indicates images taken on the day of the laser irradiation, and Day 14 indicates images taken on the 14th day. In addition, for the image of each group on Day 14, an FA grade was determined for each laser irradiation site in accordance with grade criteria shown in Table 1 to evaluate the leakage of a fluorescent dye from a neovascularization site. […]

[3] = system: laser-induced choroidal neovascularization (CNV) model; test: Laser-induced CNV model: area of CNV in choroidal flat mount; assay type: in vivo, mice; conditions: 0.3 mg/kg orally once daily; Day 14 (Comparative Example 1; BZ-X710, Image J)
Description: After fluorescence fundus photography had been performed as described above in the section (1), 0.5 mL of fluorescein isothiocyanate dextran (FITC-dextran; 20 mg/mL, Sigma-Aldrich) was administered into the tail vein of the mice. The mice were euthanized by cervical dislocation, and the eyeball was extirpated. The extirpated eyeball was fixed in a 4% paraformaldehyde phosphate buffer for 12 hours. After that, the cornea and lens were excised under a microscope, and the remaining vitreous artery was removed with forceps. Further, the retina was removed, and the choroid was notched 8 points and embedded with Fluoromount (Diagnostic BioSystems) in a flat state to generate a choroidal flat mount specimen. The choroidal flat mount was photographed using a confocal laser scanning microscope (FLUOVIEW FV10i; Olympus, Tokyo, Japan). Next, on the basis of the photographed image, the CNV was encircled using analysis software OLYMPUS FLUOVIEW FV10i (Olympus), and the area thereof was determined as the area of CNV (μm^2). All analyses were performed in a blinded manner. After fluorescence fundus photography had been performed as described above in the section (1), a choroidal flat mount specimen was generated by the same method as in Example 1. The choroidal flat mount was photographed using an all-in-one fluorescence microscope (BZ-X710; Keyence, Osaka, Japan). Next, on the basis of the photographed image, the CNV was encircled using image editing software Image J, and the area thereof was determined as the area of CNV (μm^2). All analyses were performed in a blinded manner.

Body weight in CNV model = assay type: in vivo, mice; conditions: oral once daily dosing, vs vehicle group
Excerpt: A case in which FA was unable to be performed owing to cloudiness caused by a flaw in the eye produced before the FA evaluation and a case in which CNV was connected at the time of the evaluation of the area of CNV were excluded from analysis, and the above-mentioned results were each calculated as a mean of 11 or 12 mice in each group. […] A case in which FA was unable to be performed owing to cloudiness caused by a flaw in the eye produced before the FA evaluation and a case in which CNV was connected at the time of the evaluation of the area of CNV were excluded from analysis, and the above-mentioned results were each calculated as a mean of 12 mice in each group.

S1P4 receptor = molecular target: T1, S1P4 receptor (Homo sapiens, UniProt O95977); conditions: GTP[γ35S] binding assay; report PLoS One, 2014, 9(10), e110819; read-out: EC50 for S1P4 receptor agonist activity; cited from earlier work
T1 sequence (O95977 1-384): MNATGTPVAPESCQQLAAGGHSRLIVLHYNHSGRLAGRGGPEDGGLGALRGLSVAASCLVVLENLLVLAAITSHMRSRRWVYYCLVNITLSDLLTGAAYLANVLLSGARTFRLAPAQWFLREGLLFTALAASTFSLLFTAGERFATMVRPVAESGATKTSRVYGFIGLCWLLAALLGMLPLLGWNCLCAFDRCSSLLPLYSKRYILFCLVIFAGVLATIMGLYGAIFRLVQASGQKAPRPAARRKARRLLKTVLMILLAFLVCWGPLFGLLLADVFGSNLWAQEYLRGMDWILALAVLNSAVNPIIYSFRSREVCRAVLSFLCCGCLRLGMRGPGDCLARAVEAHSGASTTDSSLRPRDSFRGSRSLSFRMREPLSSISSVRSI

Sequence of S1P3 receptor (Q99500 whole entry): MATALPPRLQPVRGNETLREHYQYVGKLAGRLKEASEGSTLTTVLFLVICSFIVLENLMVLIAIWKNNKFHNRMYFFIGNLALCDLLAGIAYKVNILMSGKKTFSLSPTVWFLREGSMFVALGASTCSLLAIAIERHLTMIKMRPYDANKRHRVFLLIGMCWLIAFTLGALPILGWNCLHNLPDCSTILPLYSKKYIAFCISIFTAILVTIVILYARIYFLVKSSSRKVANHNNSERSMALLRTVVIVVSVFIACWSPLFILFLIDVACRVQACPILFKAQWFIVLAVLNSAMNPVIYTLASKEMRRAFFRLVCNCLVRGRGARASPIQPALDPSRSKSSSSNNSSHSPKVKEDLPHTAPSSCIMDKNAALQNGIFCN

Cl.O=C(O)C1CCN(CC2=Cc3ccc(OCc4ccc(OCC(F)(F)F)c(C(F)(F)F)c4)cc3OC2)CC1 [Compound 2, 1-[(7-{[4-(2,2,2-trifluoroethoxy)-3-(trifluoromethyl)phenyl]methoxy}-2H-1-benzopyran-3-yl)methyl]piperidine-4-carboxylic acid monohydrochloride]
EC50 (S1P3 receptor): 1760 nM
EC50 for S1P3 receptor agonist activity as compared to that for the S1P1 receptor (S1P3 receptor): ≥ 100 fold
amount of FITC-dextran permeating the lower chamber (fluorescence intensity) [1]: significantly decreased the amount of FITC-dextran permeating the lower chamber
EC50 (S1P1 receptor): 13.4 nM

CCc1cc(/C(C)=N/OCc2ccc(C3CCCCC3)c(C(F)(F)F)c2)ccc1CN1CC(C(=O)O)C1 [Compound 3, 1-({4-[(1E)-N-{[4-cyclohexyl-3-(trifluoromethyl)phenyl]methoxy}ethanimidoyl]-2-ethylphenyl}methyl)azetidine-3-carboxylic acid]
amount of FITC-dextran permeating the lower chamber (fluorescence intensity) [1]: significantly decreased the amount of FITC-dextran permeating the lower chamber

CC(C)Oc1ccc(-c2nc(-c3cccc4c3CC[C@@H]4NCCO)no2)cc1C#N [Compound 4, 5-(3-{(1S)-1-[(2-hydroxyethyl)amino]-2,3-dihydro-1H-inden-4-yl}-1,2,4-oxadiazol-5-yl)-2-[(propan-2-yl)oxy]benzonitrile]
amount of FITC-dextran permeating the lower chamber (fluorescence intensity) [1]: significantly decreased the amount of FITC-dextran permeating the lower chamber

CCC/N=C1\S/C(=C\c2ccc(OC[C@H](O)CO)c(Cl)c2)C(=O)N1c1ccccc1C [Compound 5, (2Z,5Z)-5-({3-chloro-4-[(2R)-2,3-dihydroxypropoxy]phenyl}methylidene)-3-(2-methylphenyl)-2-(propylimino)-1,3-thiazolidin-4-one]
amount of FITC-dextran permeating the lower chamber (fluorescence intensity) [1]: significantly decreased the amount of FITC-dextran permeating the lower chamber

O=C(O)C[C@H]1CCc2c1[nH]c1ccc(OCc3ccc(C4CCCC4)c(C(F)(F)F)c3)cc21 [Compound 6, [(3R)-7-{[4-cyclopentyl-3-(trifluoromethyl)phenyl]methoxy}-1,2,3,4-tetrahydrocyclopenta[b]indol-3-yl]acetic acid]
amount of FITC-dextran permeating the lower chamber (fluorescence intensity) [1]: significantly decreased the amount of FITC-dextran permeating the lower chamber

NC(CO)(CCc1ccc(Sc2cccc(OCc3ccccc3)c2)cc1Cl)COP(=O)(O)O (stereo not shown) [Compound 7, 2-amino-4-(4-{[3-(benzyloxy)phenyl]sulfanyl}-2-chlorophenyl)-2-(hydroxymethyl)butyl dihydrogen phosphate]
amount of FITC-dextran permeating the lower chamber (fluorescence intensity) [1]: significantly decreased the amount of FITC-dextran permeating the lower chamber

CCCCCCCCc1ccc(CCC(N)(CO)CO)cc1.Cl [FTY720, 2-amino-2-[2-(4-octylphenyl)ethyl]propane-1,3-diol monohydrochloride, reference compound]
FA grade as compared to the vehicle group [2]: a significant lowering in FA grade was not found
area of CNV [3]: not found to significantly decrease the area of CNV
change in body weight between the groups before sampling (Body weight in CNV model): a significant change in body weight between the groups before sampling was not found

CCCCCCCCc1ccc(CCC(N)(CO)COP(=O)(O)O)cc1 (stereo not shown) [FTY720-P, 2-amino-2-(hydroxymethyl)-4-(4-octylphenyl)butyl dihydrogenphosphate, reference compound]
EC50 (S1P4 receptor): 2.2 nM
